The structures appear in SMILES notation. ≈ marks a conversion by molar mass, not a printed value.

Data on one compound can be found in patent US8772332B2, “Arylpropionyl-alpha-pyrone antibacterial agents” (priority 2010, dated 2014).

Assay [1] has as its system Mycobacterium tuberculosis H37Rv. As to the kind of experiment: MIC, microplate Alamar Blue assay. Format: cell-based. An excerpt: MICs for Mycobacterium tuberculosis were quantified using microplate Alamar Blue assays as described [Collins, L. & Franzblau, S. (1997) Microplate Alamar Blue assay versus BACTEC 460 system for high-throughput screening of compounds against Mycobacterium tuberculosis and Mycobacterium avium. Antimicrob. Agents Chemother. 41, 1004-1009].

In assay [2] the target is E. coli RNA polymerase σ70 holoenzyme (Escherichia coli, UniProt P0A8T7+P0A8V2). As to the kind of experiment: Fluorescence-detected RNA polymerase assay, E. coli RNA polymerase. Format: biochemical. The conditions noted are these: RiboGreen fluorescence, read-out: IC50 E. coli RNAP. As to the method:
Fluorescence-detected RNA polymerase assays with E. coli RNA polymerase were performed by a modification of the procedure of Kuhlman et al., 2004 [Kuhlman, P., Duff, H. & Galant, A. (2004) A fluorescence-based assay for multisubunit DNA-dependent RNA polymerases. Anal. Biochem. 324, 183-190]. Reaction mixtures contained (20 μl): 0-100 nM test compound, 75 nM E. coli RNA polymerase σ^70 holoenzyme, 20 nM 384 bp DNA fragment containing the bacteriophage T4 N25 promoter, 100 μM ATP, 100 μM GTP, 100 μM UTP, 100 μM CTP, 50 mM Tris-HCl, pH 8.0, 100 mM KCl, 10 mM MgCl2, 1 mM DTT, 10 μg/ml bovine serum albumin, and 5.5% glycerol. Reaction components other than DNA and NTPs were pre-incubated for 10 min at 37° C. Reactions were carried out by addition of DNA and incubation for 5 min at 37° C., followed by addition of NTPs and incubation for 60 min at 37° C. DNA was removed by addition of 1 μl 5 mM CaCl2 and 2 U DNaseI (Ambion, Inc.), followed by incubation for 90 min at 37° C. RNA was quantified by addition of 100 μl RiboGreen RNA Quantitation Reagent (Invitrogen, Inc.; 1:500 dilution in Tris-HCl, pH 8.0, 1 mM EDTA), followed by incubation for 10 min at 25° C., followed by measurement of fluorescence intensity [excitation wavelength=485 nm and emission wavelength=535 nm; QuantaMaster QM1 spectrofluorometer (PTI, Inc.)]. […]

Assay [3] has as its system Staphylococcus aureus BAA-1717 MRSA (USA300). As to the kind of experiment: MIC, spiral gradient endpoint assay. Format: cell-based. The conditions noted are these: Mueller-Hinton II agar, 16 h at 37° C., read-out: MIC S. aureus MRSA 1717. From the text:
(§1) Minimum inhibitory concentrations (MICs) for Staphylococcus aureus ATCC 12600, Staphylococcus aureus ATCC 13709 MSSA, Staphylococcus aureus BAA-1707 MRSA (MW2), Staphylococcus aureus BAA-1717 MRSA (USA300), Enterococcus faecalis ATCC 19433, Enterococcus faecium ATCC19434, and Escherichia coli D21f2tolC were quantified using spiral gradient endpoint assays, essentially as described [Wallace, A. and Corkill, J. (1989) Application of the spiral plating method to study antimicrobial action. J. Microbiol. Meths. 10, 303-310; Paton, J., Holt, A., and Bywater, M. (1990) Measurement of MICs of antibacterial agents by spiral gradient endpoint compared with conventional dilution methods. Int. J. Exp. Gin. Chemother. 3, 31-38; Schalkowsky S. (1994) Measures of susceptibility from a spiral gradient of drug concentrations. Adv. Exp. Med. Biol. 349, 107-120]. Assays employed exponential-gradient plates containing 150 mm×4 mm Mueller-Hinton II cation-adjusted agar and 0.4-100 μg/ml of test compound. Plates were prepared using an Autoplate 4000 spiral plater (Spiral Biotech, Inc.). Saturated overnight cultures were swabbed radially onto plates, and plates were incubated for 16 h at 37° C. For each culture, the streak length was measured using a clear plastic template (Spiral Biotech, Inc.), the test-compound concentration at the streak endpoint was calculated using the program SGE (Spiral Biotech, Inc.), and the MIC was defined as the calculated test-compound concentration at the streak endpoint.

Assay [4] concerns Enterococcus faecium ATCC19434. As to the kind of experiment: MIC, spiral gradient endpoint assay. The conditions noted are these: Mueller-Hinton II agar, 16 h at 37° C., read-out: MIC E. faecium 19434. The format is cell-based.
From the text: as §1

Assay [5] relates to Staphylococcus aureus ATCC 13709 MSSA. As to the kind of experiment: MIC, spiral gradient endpoint assay. The format is cell-based. The following applies: Mueller-Hinton II agar, 16 h at 37° C., read-out: MIC S. aureus 13709.
From the text: as §1

The subject of assay [6] is Enterococcus faecalis ATCC 19433. As to the kind of experiment: MIC, spiral gradient endpoint assay. Format: cell-based. The following applies: ATCC19433, Mueller-Hinton II agar, 16 h at 37° C., read-out: MIC E. faecalis 19433.
From the text: as §1

The test system of assay [7] is Staphylococcus aureus ATCC 12600. As to the kind of experiment: MIC, spiral gradient endpoint assay. The conditions noted are these: ATCC12600, Mueller-Hinton II agar, 16 h at 37° C., read-out: MIC S. aureus 12600. Format: cell-based.
From the text: as §1

In assay [8] the test system is Staphylococcus aureus BAA-1707 MRSA (MW2). As to the kind of experiment: MIC, spiral gradient endpoint assay. The format is cell-based. The following applies: Mueller-Hinton II agar, 16 h at 37° C., read-out: MIC S. aureus MRSA 1707.
From the text: as §1

Assay [9] deals with Escherichia coli D21f2tolC. As to the kind of experiment: MIC, spiral gradient endpoint assay. The format is cell-based. The conditions noted are these: 16 h, read-out: MIC E. coli D21f2tolC.
From the text: as §1

Chain of E. coli RNA polymerase σ70 holoenzyme (P0A8V2 whole entry, the tested form may be a part): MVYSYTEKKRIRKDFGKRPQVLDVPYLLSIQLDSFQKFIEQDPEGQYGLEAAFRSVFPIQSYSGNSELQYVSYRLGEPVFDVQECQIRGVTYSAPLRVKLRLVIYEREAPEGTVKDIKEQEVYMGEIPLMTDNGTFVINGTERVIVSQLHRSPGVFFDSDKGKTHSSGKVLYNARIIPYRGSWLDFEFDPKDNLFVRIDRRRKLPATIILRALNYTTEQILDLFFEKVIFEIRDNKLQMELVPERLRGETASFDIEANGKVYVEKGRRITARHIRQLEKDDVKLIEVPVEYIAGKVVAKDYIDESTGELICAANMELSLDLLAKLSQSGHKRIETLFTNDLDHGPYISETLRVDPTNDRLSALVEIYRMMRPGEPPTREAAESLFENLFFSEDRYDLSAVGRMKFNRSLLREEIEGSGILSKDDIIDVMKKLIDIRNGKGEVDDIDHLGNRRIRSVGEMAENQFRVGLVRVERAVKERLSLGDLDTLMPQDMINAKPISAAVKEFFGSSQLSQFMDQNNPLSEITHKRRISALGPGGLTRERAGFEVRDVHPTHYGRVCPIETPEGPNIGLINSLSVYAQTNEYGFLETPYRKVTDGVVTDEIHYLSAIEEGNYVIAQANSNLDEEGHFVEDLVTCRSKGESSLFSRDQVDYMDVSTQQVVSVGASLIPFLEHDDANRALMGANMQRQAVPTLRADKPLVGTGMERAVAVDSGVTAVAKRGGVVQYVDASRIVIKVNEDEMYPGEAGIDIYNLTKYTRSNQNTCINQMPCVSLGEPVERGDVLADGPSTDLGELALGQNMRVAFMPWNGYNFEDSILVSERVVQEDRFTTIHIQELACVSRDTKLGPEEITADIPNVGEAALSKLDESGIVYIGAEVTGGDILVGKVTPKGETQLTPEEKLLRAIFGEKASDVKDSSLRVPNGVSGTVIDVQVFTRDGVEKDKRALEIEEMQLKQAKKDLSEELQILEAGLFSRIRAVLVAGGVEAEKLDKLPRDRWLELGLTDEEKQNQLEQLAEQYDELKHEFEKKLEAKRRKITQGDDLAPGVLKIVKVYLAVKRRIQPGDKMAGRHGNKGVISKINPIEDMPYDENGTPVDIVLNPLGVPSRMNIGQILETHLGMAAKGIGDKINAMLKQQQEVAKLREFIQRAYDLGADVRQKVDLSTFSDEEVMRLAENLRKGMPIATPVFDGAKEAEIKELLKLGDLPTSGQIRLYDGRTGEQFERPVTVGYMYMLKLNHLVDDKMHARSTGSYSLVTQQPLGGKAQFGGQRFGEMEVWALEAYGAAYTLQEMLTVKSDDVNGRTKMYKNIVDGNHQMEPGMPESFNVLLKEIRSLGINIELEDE
Chain of E. coli RNA polymerase σ70 holoenzyme (P0A8T7 whole entry, the tested form may be a part): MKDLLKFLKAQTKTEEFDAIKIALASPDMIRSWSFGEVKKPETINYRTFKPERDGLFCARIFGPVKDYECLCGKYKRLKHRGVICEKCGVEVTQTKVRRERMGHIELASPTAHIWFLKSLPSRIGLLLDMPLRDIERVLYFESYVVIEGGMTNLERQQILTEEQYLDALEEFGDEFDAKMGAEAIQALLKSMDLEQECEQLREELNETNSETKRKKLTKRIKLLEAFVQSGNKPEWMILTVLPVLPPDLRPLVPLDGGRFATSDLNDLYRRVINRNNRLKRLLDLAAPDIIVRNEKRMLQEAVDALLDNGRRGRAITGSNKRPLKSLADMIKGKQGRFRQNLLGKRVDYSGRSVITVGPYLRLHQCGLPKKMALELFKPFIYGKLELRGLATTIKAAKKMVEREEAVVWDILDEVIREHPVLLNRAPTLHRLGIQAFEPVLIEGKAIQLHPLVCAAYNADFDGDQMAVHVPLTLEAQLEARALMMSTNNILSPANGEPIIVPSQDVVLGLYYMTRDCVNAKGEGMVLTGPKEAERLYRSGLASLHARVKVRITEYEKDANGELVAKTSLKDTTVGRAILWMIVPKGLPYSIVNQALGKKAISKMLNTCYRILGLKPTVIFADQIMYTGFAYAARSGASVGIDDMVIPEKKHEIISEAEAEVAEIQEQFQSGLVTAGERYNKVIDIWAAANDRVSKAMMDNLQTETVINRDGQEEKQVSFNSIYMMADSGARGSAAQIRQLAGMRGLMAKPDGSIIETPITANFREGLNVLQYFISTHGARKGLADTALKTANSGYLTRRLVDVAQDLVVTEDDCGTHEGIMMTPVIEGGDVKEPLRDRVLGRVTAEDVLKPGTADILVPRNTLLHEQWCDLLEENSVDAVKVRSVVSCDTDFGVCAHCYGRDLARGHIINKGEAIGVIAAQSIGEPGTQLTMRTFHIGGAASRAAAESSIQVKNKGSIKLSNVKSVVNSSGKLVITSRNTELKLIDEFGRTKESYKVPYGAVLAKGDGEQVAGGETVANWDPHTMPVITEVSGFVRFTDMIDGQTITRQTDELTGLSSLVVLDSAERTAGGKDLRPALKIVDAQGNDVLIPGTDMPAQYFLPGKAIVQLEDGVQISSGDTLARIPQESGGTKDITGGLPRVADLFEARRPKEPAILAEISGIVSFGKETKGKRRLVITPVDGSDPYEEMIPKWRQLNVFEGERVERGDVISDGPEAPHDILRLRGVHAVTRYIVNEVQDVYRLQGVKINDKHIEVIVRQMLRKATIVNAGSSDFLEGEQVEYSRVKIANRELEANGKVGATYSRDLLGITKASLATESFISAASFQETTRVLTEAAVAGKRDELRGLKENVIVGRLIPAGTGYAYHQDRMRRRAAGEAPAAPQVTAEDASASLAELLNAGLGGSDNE
Chain of E. coli RNA polymerase σ70 holoenzyme (P0A7Z4 whole entry partner, the tested form may be a part): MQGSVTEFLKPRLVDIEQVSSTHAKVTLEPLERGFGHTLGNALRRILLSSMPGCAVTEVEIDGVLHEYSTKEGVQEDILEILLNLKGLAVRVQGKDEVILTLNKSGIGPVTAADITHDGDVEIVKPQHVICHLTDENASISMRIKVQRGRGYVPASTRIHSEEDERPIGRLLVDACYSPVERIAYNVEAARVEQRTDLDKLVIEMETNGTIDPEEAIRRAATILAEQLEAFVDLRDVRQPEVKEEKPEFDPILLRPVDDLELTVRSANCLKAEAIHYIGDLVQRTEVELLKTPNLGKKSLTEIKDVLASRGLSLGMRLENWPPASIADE
Chain of E. coli RNA polymerase σ70 holoenzyme (P0A800 whole entry partner, the tested form may be a part): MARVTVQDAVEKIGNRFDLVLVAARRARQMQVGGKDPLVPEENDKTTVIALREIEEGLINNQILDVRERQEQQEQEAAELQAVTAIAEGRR
Chain of E. coli RNA polymerase σ70 holoenzyme (P00579 whole entry partner, the tested form may be a part): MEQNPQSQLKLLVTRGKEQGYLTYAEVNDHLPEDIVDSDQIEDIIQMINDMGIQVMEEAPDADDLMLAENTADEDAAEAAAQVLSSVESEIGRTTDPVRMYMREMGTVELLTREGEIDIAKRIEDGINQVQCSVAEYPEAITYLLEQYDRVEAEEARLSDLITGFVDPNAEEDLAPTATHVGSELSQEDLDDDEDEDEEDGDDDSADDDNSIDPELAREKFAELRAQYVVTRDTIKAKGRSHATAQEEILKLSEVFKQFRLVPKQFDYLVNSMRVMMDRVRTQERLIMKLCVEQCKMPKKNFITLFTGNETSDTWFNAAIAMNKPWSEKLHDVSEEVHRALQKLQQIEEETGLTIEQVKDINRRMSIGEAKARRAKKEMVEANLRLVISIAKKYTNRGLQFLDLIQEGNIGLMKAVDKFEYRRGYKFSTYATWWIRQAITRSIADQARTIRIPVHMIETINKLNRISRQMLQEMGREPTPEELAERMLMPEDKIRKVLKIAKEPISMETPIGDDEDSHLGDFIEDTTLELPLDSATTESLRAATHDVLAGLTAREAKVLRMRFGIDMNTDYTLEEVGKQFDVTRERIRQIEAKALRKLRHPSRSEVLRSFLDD

On to `CCCCCC1=CC(=O)C(C(=O)CCc2ccccc2)C(=O)O1` (stereo not drawn) [Compound 1, 4-hydroxy-6-pentyl-3-(3-phenylpropanoyl)-2-pyrone], for which the MIC in assay [1] amounted to 9 µg/mL (≈ 28.6 µM); in assay [3], 8 µg/mL (≈ 25.4 µM); in assay [4] it was 7 µg/mL (≈ 22.3 µM); in assay [5] it was 9 µg/mL (≈ 28.6 µM); in [6], 3 µg/mL (≈ 9.54 µM); in assay [7], 6 µg/mL (≈ 19.1 µM). Further, the MIC in assay [8] was determined as 5 µg/mL (≈ 15.9 µM); in assay [9], 3 µg/mL (≈ 9.54 µM). Also, in assay [2], the IC50 was 37 µM.
